In ChEMBL document CHEMBL1201862, “PubChem BioAssay data set” (2004):
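A five-concentration, 48-hour dose response in 96-well plates underlies each endpoint, interpolated linearly between surrounding concentrations. GI50 marks 50% less growth.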 Calls of active or inactive are those of the source. No stated cut-off is given here; in the data, active = GI50 up to about 1.1 µM and inactive = higher. Where a SMILES comes first, the peptide text is derived from it. [ ]: non-standard residue; d: D form. The star is where a group is joined. ξ: configuration not given here. ξF = NC(Cc1ccccc1)C(=O)O; Cbz = O=C(OCc1ccccc1)*; Aib = CC(C)(N)C(=O)O; NHNH2 = NN*

Key:
Assay in all cases: NCI-60 cell line screen, 48 h
CCRF-CEM = tested on: CCRF-CEM
MDA-MB-435 = tested on: MDA-MB-435
OVCAR-3 = tested on: OVCAR-3
MCF7 = tested on: MCF7
BT-549 = tested on: BT-549
NCI/ADR-RES = tested on: NCI/ADR-RES
OVCAR-4 = tested on: OVCAR-4
786-0 = tested on: 786-0
NCI-H23 = tested on: NCI-H23
MDA-N = tested on: MDA-N
RPMI-8226 = tested on: RPMI-8226
HT-29 = tested on: HT-29
U-251 = tested on: U-251
OVCAR-5 = tested on: OVCAR-5
SF-539 = tested on: SF-539
EKVX = tested on: EKVX
NCI-H460 = tested on: NCI-H460
A498 = tested on: A498
SK-MEL-2 = tested on: SK-MEL-2
IGROV-1 = tested on: IGROV-1
NCI-H522 = tested on: NCI-H522
K562 = tested on: K562
RXF 393 = tested on: RXF 393
KM12 = tested on: KM12
COLO 205 = tested on: COLO 205
A549 = tested on: A549
HOP-92 = tested on: HOP-92
HCT-116 = tested on: HCT-116
SF-295 = tested on: SF-295
TK-10 = tested on: TK-10
ACHN = tested on: ACHN
SK-MEL-5 = tested on: SK-MEL-5
HOP-62 = tested on: HOP-62
M14 = tested on: M14
SK-MEL-28 = tested on: SK-MEL-28
Hs-578T = tested on: Hs-578T
PC-3 = tested on: PC-3
UACC-257 = tested on: UACC-257
MDA-MB-231 = tested on: MDA-MB-231
Malme-3M = tested on: Malme-3M
DU-145 = tested on: DU-145
SF-268 = tested on: SF-268
SNB-19 = tested on: SNB-19
HCT-15 = tested on: HCT-15
MOLT-4 = tested on: MOLT-4
T47D = tested on: T47D
CAKI-1 = tested on: CAKI-1
SW-620 = tested on: SW-620
OVCAR-8 = tested on: OVCAR-8
HCC 2998 = tested on: HCC 2998
LOX IMVI = tested on: LOX IMVI
SK-OV-3 = tested on: SK-OV-3
SN12C = tested on: SN12C
UACC-62 = tested on: UACC-62
HL-60 = tested on: HL-60
UO-31 = tested on: UO-31
SNB-75 = tested on: SNB-75
NCI-H226 = tested on: NCI-H226

For `Cc1nc2n(c1/C=C1/C(=O)Nc3ccccc31)CCS2`, the GI50 (CCRF-CEM) was 47.1 µM (inactive), the GI50 (MDA-MB-435) was 14.8 µM (inactive) and the GI50 (OVCAR-3) was 70.1 µM (inactive). The GI50 (MCF7) was 24.3 µM (inactive), the GI50 (BT-549) was 41.3 µM (inactive) and the GI50 (NCI/ADR-RES) was 33.8 µM (inactive). The GI50 (OVCAR-4) was 52.5 µM (inactive), the GI50 (786-0) was 64.1 µM (inactive) and the GI50 (NCI-H23) was 47 µM (inactive). For the same compound, the GI50 (MDA-N) was 17.6 µM (inactive), the GI50 (RPMI-8226) was 47.1 µM (inactive) and the GI50 (HT-29) was 38.4 µM (inactive). The GI50 (U-251) was 42.4 µM (inactive), the GI50 (OVCAR-5) was > 100 µM (inactive) and the GI50 (SF-539) was 41.5 µM (inactive). For the same compound, the GI50 (EKVX) was 46.7 µM (inactive), the GI50 (NCI-H460) was 35.7 µM (inactive) and the GI50 (A498) was 31.2 µM (inactive). The GI50 (SK-MEL-2) was 5.74 µM (inactive), the GI50 (IGROV-1) was 91 µM (inactive) and the GI50 (NCI-H522) was 34.5 µM (inactive). The GI50 (K562) was 33.3 µM (inactive), the GI50 (RXF 393) was 18.7 µM (inactive) and the GI50 (KM12) was 31.1 µM (inactive). For the same compound, the GI50 (COLO 205) was 20.2 µM (inactive), the GI50 (A549) was 51.9 µM (inactive) and the GI50 (HOP-92) was > 100 µM (inactive). The GI50 (HCT-116) was 33.6 µM (inactive), the GI50 (SF-295) was 39.6 µM (inactive) and the GI50 (TK-10) was 31.6 µM (inactive). The GI50 (ACHN) was 75.3 µM (inactive), the GI50 (SK-MEL-5) was 31.5 µM (inactive) and the GI50 (HOP-62) was > 100 µM (inactive). For the same compound, the GI50 (M14) was 67.5 µM (inactive), the GI50 (SK-MEL-28) was 78 µM (inactive) and the GI50 (Hs-578T) was 39.5 µM (inactive). For the same compound, the GI50 (PC-3) was 26.5 µM (inactive), the GI50 (UACC-257) was 33.3 µM (inactive) and the GI50 (MDA-MB-231) was 32.7 µM (inactive). The GI50 (Malme-3M) was 56 µM (inactive), the GI50 (DU-145) was 53.8 µM (inactive) and the GI50 (SF-268) was 81.8 µM (inactive). For the same compound, the GI50 (SNB-19) was > 100 µM (inactive), the GI50 (HCT-15) was 34.2 µM and the GI50 (MOLT-4) was 30.9 µM (inactive). For the same compound, the GI50 (T47D) was 25.8 µM (inactive), the GI50 (CAKI-1) was 42.1 µM (inactive) and the GI50 (SW-620) was 47.4 µM (inactive). For the same compound, the GI50 (OVCAR-8) was 79.6 µM (inactive), the GI50 (HCC 2998) was 20.8 µM (inactive) and the GI50 (LOX IMVI) was 72.4 µM (inactive). The GI50 (SK-OV-3) was 68.2 µM (inactive), the GI50 (SN12C) was 56.1 µM (inactive) and the GI50 (UACC-62) was 24.2 µM (inactive). For the same compound, the GI50 (HL-60) was 32.1 µM (inactive), the GI50 (UO-31) was 27.5 µM (inactive) and the GI50 (SNB-75) was 17.3 µM (inactive).
In the case of `CC(C)(NC(=O)OCc1ccccc1)C(=O)NC(Cc1ccccc1)C(=O)NN` (centres undefined) (Cbz-[Aib]-[ξF]-NHNH2), the GI50 (CCRF-CEM) is reported as > 100 µM (inactive), the GI50 (MDA-MB-435) is reported as > 100 µM (inactive) and the GI50 (OVCAR-3) is reported as > 100 µM (inactive). For the same compound, the GI50 (MCF7) was > 100 µM (inactive), the GI50 (BT-549) was > 100 µM (inactive) and the GI50 (NCI/ADR-RES) was > 100 µM (inactive). The GI50 (OVCAR-4) was > 100 µM (inactive), the GI50 (786-0) was > 100 µM (inactive) and the GI50 (NCI-H23) was > 100 µM (inactive). For the same compound, the GI50 (MDA-N) was 42.1 µM (inactive), the GI50 (RPMI-8226) was > 100 µM (inactive) and the GI50 (HT-29) was > 100 µM (inactive). The GI50 (U-251) was > 100 µM (inactive), the GI50 (OVCAR-5) was > 100 µM (inactive) and the GI50 (SF-539) was > 100 µM (inactive). The GI50 (EKVX) was > 100 µM (inactive), the GI50 (NCI-H460) was > 100 µM (inactive) and the GI50 (A498) was > 100 µM (inactive). For the same compound, the GI50 (SK-MEL-2) was > 100 µM (inactive), the GI50 (IGROV-1) was > 100 µM (inactive) and the GI50 (NCI-H522) was > 100 µM (inactive). The GI50 (K562) was > 100 µM (inactive), the GI50 (RXF 393) was > 100 µM (inactive) and the GI50 (KM12) was > 100 µM (inactive). For the same compound, the GI50 (COLO 205) was > 100 µM (inactive), the GI50 (A549) was > 100 µM (inactive) and the GI50 (HOP-92) was > 100 µM (inactive). The GI50 (SF-295) was > 100 µM (inactive), the GI50 (TK-10) was > 100 µM (inactive) and the GI50 (ACHN) was > 100 µM (inactive). For the same compound, the GI50 (SK-MEL-5) was > 100 µM (inactive), the GI50 (HOP-62) was > 100 µM (inactive) and the GI50 (NCI-H226) was > 100 µM (inactive). The GI50 (M14) was > 100 µM (inactive), the GI50 (SK-MEL-28) was > 100 µM (inactive) and the GI50 (Hs-578T) was > 100 µM (inactive). The GI50 (PC-3) was > 100 µM (inactive), the GI50 (UACC-257) was > 100 µM (inactive) and the GI50 (MDA-MB-231) was > 100 µM (inactive). For the same compound, the GI50 (Malme-3M) was > 100 µM (inactive), the GI50 (DU-145) was > 100 µM (inactive) and the GI50 (SF-268) was > 100 µM (inactive). For the same compound, the GI50 (SNB-19) was > 100 µM (inactive), the GI50 (HCT-15) was over 100 µM and the GI50 (MOLT-4) was > 100 µM (inactive). For the same compound, the GI50 (T47D) was > 100 µM (inactive), the GI50 (CAKI-1) was > 100 µM (inactive) and the GI50 (SW-620) was > 100 µM (inactive). For the same compound, the GI50 (OVCAR-8) was > 100 µM (inactive), the GI50 (LOX IMVI) was > 100 µM (inactive) and the GI50 (SK-OV-3) was > 100 µM (inactive). The GI50 (SN12C) was > 100 µM (inactive), the GI50 (UACC-62) was > 100 µM (inactive) and the GI50 (UO-31) was > 100 µM (inactive). The GI50 (SNB-75) was > 100 µM (inactive).
With `COC(=O)CCC1(C)C2CCC1(C)/C(=N/O)C2` (centres undefined) the GI50 (CCRF-CEM) was > 100 µM (inactive), the GI50 (MDA-MB-435) was > 100 µM (inactive) and the GI50 (OVCAR-3) was > 100 µM (inactive). For the same compound, the GI50 (MCF7) was > 100 µM (inactive), the GI50 (BT-549) was > 100 µM (inactive) and the GI50 (NCI/ADR-RES) was > 100 µM (inactive). The GI50 (OVCAR-4) was > 100 µM (inactive), the GI50 (786-0) was > 100 µM (inactive) and the GI50 (NCI-H23) was > 100 µM (inactive). For the same compound, the GI50 (MDA-N) was > 100 µM (inactive), the GI50 (RPMI-8226) was > 100 µM (inactive) and the GI50 (HT-29) was > 100 µM (inactive). For the same compound, the GI50 (U-251) was > 100 µM (inactive), the GI50 (OVCAR-5) was > 100 µM (inactive) and the GI50 (EKVX) was > 100 µM (inactive). For the same compound, the GI50 (SK-MEL-2) was > 100 µM (inactive), the GI50 (IGROV-1) was > 100 µM (inactive) and the GI50 (NCI-H522) was > 100 µM (inactive). The GI50 (K562) was > 100 µM (inactive), the GI50 (RXF 393) was > 100 µM (inactive) and the GI50 (KM12) was > 100 µM (inactive). The GI50 (COLO 205) was > 100 µM (inactive), the GI50 (A549) was > 100 µM (inactive) and the GI50 (HCT-116) was > 100 µM (inactive). For the same compound, the GI50 (SF-295) was > 100 µM (inactive), the GI50 (TK-10) was > 100 µM (inactive) and the GI50 (ACHN) was > 100 µM (inactive). The GI50 (SK-MEL-5) was > 100 µM (inactive), the GI50 (HOP-62) was > 100 µM (inactive) and the GI50 (NCI-H226) was > 100 µM (inactive). The GI50 (M14) was > 100 µM (inactive), the GI50 (SK-MEL-28) was > 100 µM (inactive) and the GI50 (Hs-578T) was > 100 µM (inactive). For the same compound, the GI50 (PC-3) was > 100 µM (inactive), the GI50 (UACC-257) was > 100 µM (inactive) and the GI50 (MDA-MB-231) was > 100 µM (inactive). For the same compound, the GI50 (Malme-3M) was > 100 µM (inactive), the GI50 (DU-145) was > 100 µM (inactive) and the GI50 (SF-268) was > 100 µM (inactive). For the same compound, the GI50 (SNB-19) was > 100 µM (inactive), the GI50 (HCT-15) was over 100 µM and the GI50 (MOLT-4) was > 100 µM (inactive). The GI50 (T47D) was > 100 µM (inactive), the GI50 (CAKI-1) was > 100 µM (inactive) and the GI50 (SW-620) was > 100 µM (inactive). The GI50 (OVCAR-8) was > 100 µM (inactive), the GI50 (HCC 2998) was > 100 µM (inactive) and the GI50 (SK-OV-3) was > 100 µM (inactive). For the same compound, the GI50 (SN12C) was > 100 µM (inactive), the GI50 (UACC-62) was > 100 µM (inactive) and the GI50 (UO-31) was > 100 µM (inactive). For the same compound, the GI50 (SNB-75) was > 100 µM (inactive).
